Laboratory results: patent US10004701B2, “Methods and compositions for treating infection” (UNIVERSITY OF ROCHESTER, priority 2012, dated 2018)
Structures can show the parent of a compound that is named as a salt. Where two headings read alike, the source gives them in different places.

Key:
Test in all cases: AK assay 384-well format, Prestwick library screening
[1] = system: A. baumannii strain 98-37-09; type: cell-based, Acinetobacter baumannii; settings: 50 μM final drug concentration; for fold induction at 50 µM: Acinetobacter baumannii, 983709, 3 h
[2] = system: S. aureus strain USA300-0114; type: cell-based, Staphylococcus aureus; settings: 50 μM final drug concentration; for fold induction at 50 µM: Staphylococcus aureus, USA300, 3 h
[3] = system: P. aeruginosa; type: cell-based, Pseudomonas aeruginosa; settings: 50 μM final drug concentration; for fold induction at 50 µM: Pseudomonas aeruginosa, 3 h
[4] = system: K. pneumoniae; type: cell-based, Klebsiella pneumoniae; settings: 50 μM final drug concentration; for fold induction at 50 µM: Klebsiella pneumoniae, 3 h
[5] = system: E. faecium; type: cell-based, Enterococcus faecium; settings: 50 μM final drug concentration; for fold induction at 50 µM: Enterococcus faecium, 3 h
[6] = system: E. coli; type: cell-based, Escherichia coli; settings: 50 μM final drug concentration; for fold induction at 50 µM: Escherichia coli, 3 h
[7] = system: E. cloacae; type: cell-based, Enterobacter cloacae; settings: 50 μM final drug concentration; for fold induction at 50 µM: Enterobacter cloacae, 3 h
[8] = planktonic A. baumannii, cutoff for positive-scoring molecules 3-fold increase, read-out: AK-based Prestwick Library Screening Results, A. baumannii (increase in extracellular AK activity)
[9] = planktonic S. aureus, cutoff for positive-scoring molecules 3-fold increase, read-out: AK-based Prestwick Library Screening Results, S. aureus (increase in extracellular AK activity)
[10] = planktonic P. aeruginosa, cutoff for positive-scoring molecules 3-fold increase, read-out: AK-based Prestwick Library Screening Results, P. aeruginosa (increase in extracellular AK activity)
[11] = planktonic K. pneumoniae, cutoff for positive-scoring molecules 3-fold increase, read-out: AK-based Prestwick Library Screening Results, K. pneumoniae (increase in extracellular AK activity)
[12] = planktonic E. faecium, cutoff for positive-scoring molecules 3-fold increase, read-out: AK-based Prestwick Library Screening Results, E. faecium (increase in extracellular AK activity)
[13] = planktonic E. coli, cutoff for positive-scoring molecules 3-fold increase, read-out: AK-based Prestwick Library Screening Results, E. coli (increase in extracellular AK activity)
[14] = planktonic E. cloacae, cutoff for positive-scoring molecules 3-fold increase, read-out: AK-based Prestwick Library Screening Results, E. cloacae (increase in extracellular AK activity)
[15] = cutoff for positive-scoring molecules 3-fold increase, read-out: AK-based Prestwick Library Screening Results, A. baumannii (fold increase in extracellular AK activity)
[16] = cutoff for positive-scoring molecules 3-fold increase, read-out: AK-based Prestwick Library Screening Results, S. aureus (fold increase in extracellular AK activity)
[17] = cutoff for positive-scoring molecules 3-fold increase, read-out: AK-based Prestwick Library Screening Results, P. aeruginosa (fold increase in extracellular AK activity)
[18] = cutoff for positive-scoring molecules 3-fold increase, read-out: AK-based Prestwick Library Screening Results, K. pneumoniae (fold increase in extracellular AK activity)
[19] = cutoff for positive-scoring molecules 3-fold increase, read-out: AK-based Prestwick Library Screening Results, E. faecium (fold increase in extracellular AK activity)
[20] = cutoff for positive-scoring molecules 3-fold increase, read-out: AK-based Prestwick Library Screening Results, E. coli (fold increase in extracellular AK activity)
[21] = cutoff for positive-scoring molecules 3-fold increase, read-out: AK-based Prestwick Library Screening Results, E. cloacae (fold increase in extracellular AK activity)

Compound: CC(C)(O/N=C(\C(=O)N[C@@H]1C(=O)N2C(C(=O)[O-])=C(C[n+]3ccccc3)CS[C@H]12)c1csc(N)n1)C(=O)O [Ceftazidime pentahydrate]
- fold induction at 50 µM [1, 8]: 0.5
- fold induction at 50 µM [2, 9]: 0.4
- fold induction at 50 µM [3, 10]: 7.8
- fold induction at 50 µM [4, 11]: 3.2
- fold induction at 50 µM [5, 12]: 0.9
- fold induction at 50 µM [6, 13]: 11.5
- fold induction at 50 µM [7, 14]: 12.9

Compound: CO/N=C(\C(=O)N[C@@H]1C(=O)N2C(C(=O)O)=C(COC(N)=O)CS[C@H]12)c1ccco1 [Cefuroxime sodium salt]
- fold induction at 50 µM [1, 15]: 1.4
- fold induction at 50 µM [2, 16]: 3.4
- fold induction at 50 µM [3, 17]: 1.6
- fold induction at 50 µM [4, 18]: 2.4
- fold induction at 50 µM [5, 19]: 1
- fold induction at 50 µM [6, 20]: 12.1
- fold induction at 50 µM [7, 21]: 1.6

Compound: CC1=C(C(=O)O)N2C(=O)[C@@H](NC(=O)[C@H](N)c3ccccc3)[C@H]2SC1 [Cephalexin monohydrate]
- fold induction at 50 µM [1, 8]: 0.9
- fold induction at 50 µM [2, 9]: 0.7
- fold induction at 50 µM [3, 10]: 0.8
- fold induction at 50 µM [4, 11]: 0.7
- fold induction at 50 µM [5, 12]: 0.9
- fold induction at 50 µM [6, 13]: 0.8
- fold induction at 50 µM [7, 14]: 1.4

Compound: CC(=O)OCC1=C(C(=O)O)N2C(=O)[C@@H](N)[C@H]2SC1 [Cephalosporanic acid, 7-amino]
- AK-based Prestwick Library Screening Results, A. baumannii (increase in extracellular AK activity) ([1]; planktonic A. baumannii, […]): 0.8
- AK-based Prestwick Library Screening Results, S. aureus (increase in extracellular AK activity) ([2]; planktonic S. aureus, […]): 0.6
- AK-based Prestwick Library Screening Results, P. aeruginosa (increase in extracellular AK activity) ([3]; planktonic P. aeruginosa, […]): 0.8
- AK-based Prestwick Library Screening Results, K. pneumoniae (increase in extracellular AK activity) ([4]; planktonic K. pneumoniae, […]): 0.7
- AK-based Prestwick Library Screening Results, E. faecium (increase in extracellular AK activity) ([5]; planktonic E. faecium, […]): 0.9
- AK-based Prestwick Library Screening Results, E. coli (increase in extracellular AK activity) ([6]; planktonic E. coli, […]): 0.9
- AK-based Prestwick Library Screening Results, E. cloacae (increase in extracellular AK activity) ([7]; planktonic E. cloacae, […]): 0.8

Compound: CC(=O)OCC1=C(C(=O)O)N2C(=O)[C@@H](NC(=O)Cc3cccs3)[C@H]2SC1 [Cephalothin sodium salt]
- fold induction at 50 µM [1, 15]: 1.1
- fold induction at 50 µM [2, 16]: 5.3
- fold induction at 50 µM [3, 17]: 1.1
- fold induction at 50 µM [4, 18]: 3.2
- fold induction at 50 µM [5, 19]: 1
- fold induction at 50 µM [6, 20]: 11.8
- fold induction at 50 µM [7, 21]: 2

Compound: O=C(O)COCCN1CCN(C(c2ccccc2)c2ccc(Cl)cc2)CC1 (stereo not shown) [Cetirizine dihydrochloride]
- fold induction at 50 µM [1, 8]: 1.1
- fold induction at 50 µM [2, 9]: 0.7
- fold induction at 50 µM [3, 10]: 0.9
- fold induction at 50 µM [4, 11]: 0.7
- fold induction at 50 µM [5, 12]: 0.9
- fold induction at 50 µM [6, 13]: 0.9
- fold induction at 50 µM [7, 14]: 0.9

Compound: C[C@H](CCC(=O)O)[C@H]1CC[C@H]2[C@@H]3[C@H](O)C[C@@H]4C[C@H](O)CC[C@]4(C)[C@H]3CC[C@]12C [Chenodiol]
- fold induction at 50 µM ([1]; planktonic A. baumannii, 384-well, cutoff for positive-scoring molecules 3-fold increase, read-out: AK-based Prestwick Library Screening Results: A. baumannii (increase in extracellular AK activity)): 1
- fold induction at 50 µM ([2]; planktonic S. aureus, 384-well, cutoff for positive-scoring molecules 3-fold increase, read-out: AK-based Prestwick Library Screening Results: S. aureus (increase in extracellular AK activity)): 1.7
- fold induction at 50 µM ([3]; planktonic P. aeruginosa, 384-well, cutoff for positive-scoring molecules 3-fold increase, read-out: AK-based Prestwick Library Screening Results: P. aeruginosa (increase in extracellular AK activity)): 1.2
- fold induction at 50 µM ([4]; planktonic K. pneumoniae, 384-well, cutoff for positive-scoring molecules 3-fold increase, read-out: AK-based Prestwick Library Screening Results: K. pneumoniae (increase in extracellular AK activity)): 0.8
- fold induction at 50 µM ([5]; planktonic E. faecium, 384-well, cutoff for positive-scoring molecules 3-fold increase, read-out: AK-based Prestwick Library Screening Results: E. faecium (increase in extracellular AK activity)): 1
- fold induction at 50 µM ([6]; planktonic E. coli, 384-well, cutoff for positive-scoring molecules 3-fold increase, read-out: AK-based Prestwick Library Screening Results: E. coli (increase in extracellular AK activity)): 1.2
- fold induction at 50 µM ([7]; planktonic E. cloacae, 384-well, cutoff for positive-scoring molecules 3-fold increase, read-out: AK-based Prestwick Library Screening Results: E. cloacae (increase in extracellular AK activity)): 1.5

Compound: COc1cc(-c2ccc(N=Nc3ccc4c(S(=O)(=O)[O-])cc(S(=O)(=O)[O-])c(N)c4c3O)c(OC)c2)ccc1N=Nc1ccc2c(S(=O)(=O)[O-])cc(S(=O)(=O)[O-])c(N)c2c1O.[Na+].[Na+].[Na+].[Na+] [Chicago sky blue 6B]
- AK-based Prestwick Library Screening Results, A. baumannii (increase in extracellular AK activity) ([1]; planktonic A. baumannii, cutoff for positive-scoring molecules 3-fold increase): 0.4
- AK-based Prestwick Library Screening Results, S. aureus (increase in extracellular AK activity) ([2]; planktonic S. aureus, cutoff for positive-scoring molecules 3-fold increase): 0.0
- AK-based Prestwick Library Screening Results, P. aeruginosa (increase in extracellular AK activity) ([3]; planktonic P. aeruginosa, cutoff for positive-scoring molecules 3-fold increase): 0.4
- AK-based Prestwick Library Screening Results, K. pneumoniae (increase in extracellular AK activity) ([4]; planktonic K. pneumoniae, cutoff for positive-scoring molecules 3-fold increase): 0.3
- AK-based Prestwick Library Screening Results, E. faecium (increase in extracellular AK activity) ([5]; planktonic E. faecium, cutoff for positive-scoring molecules 3-fold increase): 0.5
- AK-based Prestwick Library Screening Results, E. coli (increase in extracellular AK activity) ([6]; planktonic E. coli, cutoff for positive-scoring molecules 3-fold increase): 0.5
- AK-based Prestwick Library Screening Results, E. cloacae (increase in extracellular AK activity) ([7]; planktonic E. cloacae, cutoff for positive-scoring molecules 3-fold increase): 0.9

Compound: O=C(O)CCCc1ccc(N(CCCl)CCCl)cc1 [Chlorambucil]
- fold induction at 50 µM ([1]; planktonic A. baumannii, […], read-out: AK-based Prestwick library screening result, A. baumannii (fold increase in extracellular AK activity)): 0.9
- fold induction at 50 µM ([2]; planktonic S. aureus, […], read-out: AK-based Prestwick library screening result, S. aureus (fold increase in extracellular AK activity)): 0.8
- fold induction at 50 µM ([3]; planktonic P. aeruginosa, […], read-out: AK-based Prestwick library screening result, P. aeruginosa (fold increase in extracellular AK activity)): 0.8
- fold induction at 50 µM ([4]; planktonic K. pneumoniae, […], read-out: AK-based Prestwick library screening result, K. pneumoniae (fold increase in extracellular AK activity)): 0.7
- fold induction at 50 µM ([5]; planktonic E. faecium, […], read-out: AK-based Prestwick library screening result, E. faecium (fold increase in extracellular AK activity)): 0.9
- fold induction at 50 µM ([6]; planktonic E. coli, […], read-out: AK-based Prestwick library screening result, E. coli (fold increase in extracellular AK activity)): 0.9
- fold induction at 50 µM ([7]; planktonic E. cloacae, […], read-out: AK-based Prestwick library screening result, E. cloacae (fold increase in extracellular AK activity)): 1.2

Compound: O=C(N[C@H](CO)[C@H](O)c1ccc([N+](=O)[O-])cc1)C(Cl)Cl [Chloramphenicol]
- fold induction at 50 µM ([1]; 384-well format, cutoff for positive-scoring molecules 3-fold increase, read-out: AK-based Prestwick Library Screening Results, A. baumannii (increase in extracellular AK activity)): 1
- fold induction at 50 µM ([2]; 384-well format, cutoff for positive-scoring molecules 3-fold increase, read-out: AK-based Prestwick Library Screening Results, S. aureus (increase in extracellular AK activity)): 9.7
- fold induction at 50 µM ([3]; 384-well format, cutoff for positive-scoring molecules 3-fold increase, read-out: AK-based Prestwick Library Screening Results, P. aeruginosa (increase in extracellular AK activity)): 0.8
- fold induction at 50 µM ([4]; 384-well format, cutoff for positive-scoring molecules 3-fold increase, read-out: AK-based Prestwick Library Screening Results, K. pneumoniae (increase in extracellular AK activity)): 0.2
- fold induction at 50 µM ([5]; 384-well format, cutoff for positive-scoring molecules 3-fold increase, read-out: AK-based Prestwick Library Screening Results, E. faecium (increase in extracellular AK activity)): 0.8
- fold induction at 50 µM ([6]; 384-well format, cutoff for positive-scoring molecules 3-fold increase, read-out: AK-based Prestwick Library Screening Results, E. coli (increase in extracellular AK activity)): 0.7
- fold induction at 50 µM ([7]; 384-well format, cutoff for positive-scoring molecules 3-fold increase, read-out: AK-based Prestwick Library Screening Results, E. cloacae (increase in extracellular AK activity)): 1.5
